Test results reported in patent US20050112573A1, “Method of detecting toxic substance” (priority 2001, published 2005).

System: yeast genes (level of expressed mRNA)
Test: DNA chip analysis of expressed mRNA of yeast genes after 2 h culture with a toxic chemical substance
Format: cell-based, Saccharomyces cerevisiae S288C
In short: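 S. cerevisiae S288C in YPD at 25 °C was exposed at log phase for 2 h to a growth-inhibiting, non-lethal concentration of the chemical. Poly(A) mRNA was reverse-transcribed with Cy3- or Cy5-dUTP and hybridized to a whole-genome yeast DNA chip (65 °C, >12 h). Values are fluorescence ratios versus untreated cells.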

CCCCC[C@H](O)CC(=O)CCc1ccc(O)c(OC)c1 [(13), gingerol]
0.5: level of expressed mRNA in the presence of chemical substance/in its absence (gene YHR092C) | The level of expressed mRNA in the presence of chemical substance/absence: YOR253W (gene YOR253W)
3.6: level of expressed mRNA in the presence of chemical substance/in its absence (gene YMR271C)
1.0: The level of expressed mRNA in the presence of chemical substance/absence: YHL037C (gene YHL037C) | level of expressed mRNA in the presence of chemical substance/in its absence (gene YJL088W) | level of expressed mRNA in the presence of chemical substance/in its absence (gene YLR307W) | The level of expressed mRNA in the presence of chemical substance/absence: YLR415C (gene YLR415C)
0.6: level of expressed mRNA in the presence of chemical substance/in its absence (gene YHR137W) | level of expressed mRNA in the presence of chemical substance/in its absence (gene YJL196C) | The level of expressed mRNA in the presence of chemical substance/absence: YKR040C (gene YKR040C) | level of expressed mRNA in the presence of chemical substance/in its absence (gene YLR180W) | The level of expressed mRNA in the presence of chemical substance/absence: YNL058C (gene YNL058C) | The level of expressed mRNA in the presence of chemical substance/absence: YNL176C (gene YNL176C) | The level of expressed mRNA in the presence of chemical substance/absence: YNL191W (gene YNL191W)
1.5: The level of expressed mRNA in the presence of chemical substance/absence: YIL165C (gene YIL165C) | The level of expressed mRNA in the presence of chemical substance/absence: YJL017W (gene YJL017W) | The level of expressed mRNA in the presence of chemical substance/absence: YNL063W (gene YNL063W) | The level of expressed mRNA in the presence of chemical substance/absence: YNL194C (gene YNL194C) | The level of expressed mRNA in the presence of chemical substance/absence: YNL276C (gene YNL276C) | level of expressed mRNA in the presence of chemical substance/in its absence (gene YOR136W)
2.1: level of expressed mRNA in the presence of chemical substance/in its absence (gene YJR159W) | level of expressed mRNA in the presence of chemical substance/in its absence (gene YNL104C) | level of expressed mRNA in the presence of chemical substance/in its absence (gene YNR002C) | level of expressed mRNA in the presence of chemical substance/in its absence (gene YNR019W) | The level of expressed mRNA in the presence of chemical substance/absence: YNR051C (gene YNR051C) | level of expressed mRNA in the presence of chemical substance/in its absence (gene YOR130C)
1.7: level of expressed mRNA in the presence of chemical substance/in its absence (gene YHR190W) | level of expressed mRNA in the presence of chemical substance/in its absence (gene YIL154C) | level of expressed mRNA in the presence of chemical substance/in its absence (gene YKL067W) | The level of expressed mRNA in the presence of chemical substance/absence: YKL094W (gene YKL094W) | level of expressed mRNA in the presence of chemical substance/in its absence (gene YLR273C) | The level of expressed mRNA in the presence of chemical substance/absence: YML118W (gene YML118W) | The level of expressed mRNA in the presence of chemical substance/absence: YNL026W (gene YNL026W) | level of expressed mRNA in the presence of chemical substance/in its absence (gene YNL169C) | The level of expressed mRNA in the presence of chemical substance/absence: YOL030W (gene YOL030W) | The level of expressed mRNA in the presence of chemical substance/absence: YOR022C (gene YOR022C)
0.2: level of expressed mRNA in the presence of chemical substance/in its absence (gene YLR300W)
0.4: The level of expressed mRNA in the presence of chemical substance/absence: YIL127C (gene YIL127C) | The level of expressed mRNA in the presence of chemical substance/absence: YOR088W (gene YOR088W)
2.5: level of expressed mRNA in the presence of chemical substance/in its absence (gene YIL033C) | The level of expressed mRNA in the presence of chemical substance/absence: YLR427W (gene YLR427W)
2.6: The level of expressed mRNA in the presence of chemical substance/absence: YHL021C (gene YHL021C) | level of expressed mRNA in the presence of chemical substance/in its absence (gene YNL045W) | level of expressed mRNA in the presence of chemical substance/in its absence (gene YOL126C)
2.4: level of expressed mRNA in the presence of chemical substance/in its absence (gene YNR059W)
1.2: level of expressed mRNA in the presence of chemical substance/in its absence (gene YGR282C) | The level of expressed mRNA in the presence of chemical substance/absence: YHR134W (gene YHR134W) | level of expressed mRNA in the presence of chemical substance/in its absence (gene YIL167W) | The level of expressed mRNA in the presence of chemical substance/absence: YKL051W (gene YKL051W) | level of expressed mRNA in the presence of chemical substance/in its absence (gene YLR142W) | The level of expressed mRNA in the presence of chemical substance/absence: YLR338W (gene YLR338W) | The level of expressed mRNA in the presence of chemical substance/absence: YML013W (gene YML013W) | The level of expressed mRNA in the presence of chemical substance/absence: YML041C (gene YML041C) | level of expressed mRNA in the presence of chemical substance/in its absence (gene YMR272C) | The level of expressed mRNA in the presence of chemical substance/absence: YOL026C (gene YOL026C) | level of expressed mRNA in the presence of chemical substance/in its absence (gene YOL058W) | level of expressed mRNA in the presence of chemical substance/in its absence (gene YOL143C) | The level of expressed mRNA in the presence of chemical substance/absence: YOR087W (gene YOR087W)
3.3: level of expressed mRNA in the presence of chemical substance/in its absence (gene YMR105C)
0.8: The level of expressed mRNA in the presence of chemical substance/absence: YKL090W (gene YKL090W) | level of expressed mRNA in the presence of chemical substance/in its absence (gene YNL322C)
0.9: The level of expressed mRNA in the presence of chemical substance/absence: YJL049W (gene YJL049W) | The level of expressed mRNA in the presence of chemical substance/absence: YKL097C (gene YKL097C) | level of expressed mRNA in the presence of chemical substance/in its absence (gene YMR189W) | level of expressed mRNA in the presence of chemical substance/in its absence (gene YMR296C) | level of expressed mRNA in the presence of chemical substance/in its absence (gene YNL106C)
2.9: level of expressed mRNA in the presence of chemical substance/in its absence (gene YNL012W) | level of expressed mRNA in the presence of chemical substance/in its absence (gene YNL231C) | level of expressed mRNA in the presence of chemical substance/in its absence (gene YOL153C)
3.8: level of expressed mRNA in the presence of chemical substance/in its absence (gene YNR033W)
1.9: level of expressed mRNA in the presence of chemical substance/in its absence (gene YNL037C) | level of expressed mRNA in the presence of chemical substance/in its absence (gene YNL130C)
1.3: The level of expressed mRNA in the presence of chemical substance/absence: YHR180W (gene YHR180W) | The level of expressed mRNA in the presence of chemical substance/absence: YIL108W (gene YIL108W) | level of expressed mRNA in the presence of chemical substance/in its absence (gene YJL132W) | The level of expressed mRNA in the presence of chemical substance/absence: YKL059C (gene YKL059C) | The level of expressed mRNA in the presence of chemical substance/absence: YKL100C (gene YKL100C) | level of expressed mRNA in the presence of chemical substance/in its absence (gene YKR039W) | The level of expressed mRNA in the presence of chemical substance/absence: YMR071C (gene YMR071C) | The level of expressed mRNA in the presence of chemical substance/absence: YMR115W (gene YMR115W) | The level of expressed mRNA in the presence of chemical substance/absence: YNL212W (gene YNL212W)
1.1: The level of expressed mRNA in the presence of chemical substance/absence: YHL006C (gene YHL006C) | level of expressed mRNA in the presence of chemical substance/in its absence (gene YHR037W) | The level of expressed mRNA in the presence of chemical substance/absence: YHR083W (gene YHR083W) | level of expressed mRNA in the presence of chemical substance/in its absence (gene YIR035C) | The level of expressed mRNA in the presence of chemical substance/absence: YJL037W (gene YJL037W) | level of expressed mRNA in the presence of chemical substance/in its absence (gene YJR148W) | The level of expressed mRNA in the presence of chemical substance/absence: YLR097C (gene YLR097C) | The level of expressed mRNA in the presence of chemical substance/absence: YMR114C (gene YMR114C) | The level of expressed mRNA in the presence of chemical substance/absence: YNL200C (gene YNL200C) | The level of expressed mRNA in the presence of chemical substance/absence: YNL253W (gene YNL253W)
2.0: The level of expressed mRNA in the presence of chemical substance/absence: YJR044C (gene YJR044C) | The level of expressed mRNA in the presence of chemical substance/absence: YML029W (gene YML029W) | The level of expressed mRNA in the presence of chemical substance/absence: YNL265C (gene YNL265C)
1.8: level of expressed mRNA in the presence of chemical substance/in its absence (gene YML110C) | The level of expressed mRNA in the presence of chemical substance/absence: YNL181W (gene YNL181W) | The level of expressed mRNA in the presence of chemical substance/absence: YOR138C (gene YOR138C)
0.1: The level of expressed mRNA in the presence of chemical substance/absence: YLR339C (gene YLR339C)
1.6: level of expressed mRNA in the presence of chemical substance/in its absence (gene YJR142W) | The level of expressed mRNA in the presence of chemical substance/absence: YML079W (gene YML079W) | The level of expressed mRNA in the presence of chemical substance/absence: YMR160W (gene YMR160W) | The level of expressed mRNA in the presence of chemical substance/absence: YMR258C (gene YMR258C) | level of expressed mRNA in the presence of chemical substance/in its absence (gene YOR099W)
0.7: The level of expressed mRNA in the presence of chemical substance/absence: YGR293C (gene YGR293C) | The level of expressed mRNA in the presence of chemical substance/absence: YHR095W (gene YHR095W) | The level of expressed mRNA in the presence of chemical substance/absence: YHR181W (gene YHR181W) | The level of expressed mRNA in the presence of chemical substance/absence: YJL097W (gene YJL097W) | The level of expressed mRNA in the presence of chemical substance/absence: YJR030C (gene YJR030C) | The level of expressed mRNA in the presence of chemical substance/absence: YLR226W (gene YLR226W)
1.4: The level of expressed mRNA in the presence of chemical substance/absence: YHR105W (gene YHR105W) | The level of expressed mRNA in the presence of chemical substance/absence: YJL032W (gene YJL032W) | The level of expressed mRNA in the presence of chemical substance/absence: YLR392C (gene YLR392C) | The level of expressed mRNA in the presence of chemical substance/absence: YMR068W (gene YMR068W) | level of expressed mRNA in the presence of chemical substance/in its absence (gene YOL157C)
